Measured values taken from PubChem BioAssay (NCI).
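48-hour exposure; five concentrations; linearly interpolated endpoints. Definition used: TGI = concentration required for complete inhibition of growth.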

Legend:
Experiment in all cases: growth of human tumour cells (NCI), 48 h
MOLT-4 leukemia = test system: MOLT-4 leukemia
A549 NSCLC = test system: A549 NSCLC
MDA-MB-231 breast = test system: MDA-MB-231 breast
HOP-92 NSCLC = test system: HOP-92 NSCLC
DU-145 prostate = test system: DU-145 prostate
CAKI-1 renal = test system: CAKI-1 renal
OVCAR-5 ovarian = test system: OVCAR-5 ovarian
SK-MEL-28 melanoma = test system: SK-MEL-28 melanoma
HS 578T breast = test system: HS 578T breast
LOX IMVI melanoma = test system: LOX IMVI melanoma

Compound | TGI (MOLT-4 leukemia) [µM] | TGI (A549 NSCLC) [µM] | TGI (MDA-MB-231 breast) [µM] | TGI (HOP-92 NSCLC) [µM] | TGI (DU-145 prostate) [µM] | TGI (CAKI-1 renal) [µM] | TGI (OVCAR-5 ovarian) [µM] | TGI (SK-MEL-28 melanoma) [µM] | TGI (HS 578T breast) [µM] | TGI (LOX IMVI melanoma) [µM]
CC(C)NC(=O)OCc1c(COC(=O)NC(C)C)c(-c2ccc[n+](COC(=O)C3CCCCC3)c2)n2c1CCC2 | > 100 | > 100 | > 100 | > 100 | > 100 | 68.6 | > 100 | > 100 | > 100 | > 100
CN(C)/C=C/c1ccnc2c1C(=O)c1ccccc1C2=O | > 64.1 | > 56.7 | > 89 | > 100 | 3.41 | 50.8 | 32.5 | 5.95 | 7.06 | 20.7
O=C1NC(N2CCCC(CO)C2)=N/C1=C\c1ccc(O)cc1 (stereo not given) | > 100 | > 100 | > 100 | > 100 | > 100 | > 100 | > 100 | > 100 | > 100 | > 100
CC(C)(Oc1ccc(C2C[C@H]2Cl)cc1)C(=O)O (stereo not given in full) | > 100 | > 100 | > 100 | > 100 | > 100 | > 100 | > 100 | > 100 | > 100 | > 100
COc1cc(OC)cc(N(C)Cc2cnc3nc(N)nc(N)c3c2C)c1 | > 100 | > 100 | > 100 | > 100 | > 100 | > 100 | > 100 | > 100 | > 100 | > 100
CC(=S)NC1C(Oc2ccc3c(C)cc(=O)oc3c2)OC(CO)C(O)C1O (stereo not given) | > 100 | > 100 | > 100 | > 100 | > 100 | > 100 | > 100 | > 100 | > 100 | > 100
O=C(C(=O)n1ccc2ccccc21)c1c[nH]c2ccccc12 | > 10 | > 10 | > 10 | > 10 | > 10 | > 10 | > 10 | > 10 | > 10 | > 10
CCO/C=N/C1=C(C#N)C(c2ccc(OC)c(OC)c2)c2c(-c3ccccc3)nn(-c3ccccc3)c2O1 (stereo not given) | 38.4 | 40.5 | 40.4 | 30 | 28.7 | 33.3 | 52.6 | 29.4 | > 100 | 31
Clc1ccc(CCN2CCN(CCCc3ccccc3)CC2)cc1Cl | > 100 | 29.9 | 30.8 | 23.6 | 30.4 | 33.8 | 29.9 | 37.5 | 44.9 | 31.5
C[C@H]1C(=O)C2=C[C@H]1CCC(=O)[C@]1(C)CCCC(C)(C)[C@H]1C[C@H]2O | > 100 | 43.6 | 20.2 | 54.3 | 96.8 | > 100 | > 100 | > 100 | 62.7 | 35.4
CCN1CCc2sc3[nH]c(=S)n(C)c(=O)c3c2C1 | > 100 | > 100 | > 100 | > 100 | > 100 | > 100 | > 100 | > 100 | > 100 | > 100
COc1ccc(N=Nc2ccc3oc(=O)c(C(=O)Nc4ccc(OC)cc4)cc3c2)cc1 | 34.9 | > 100 | 88.1 | 50.1 | 53.9 | > 100 | 50.6 | 41.1 | 89.9 | 18.1
CCCCCCCCCCCCCCCCCc1nc(C#N)c(N)o1 | > 100 | > 100 | 96.5 | > 100 | > 100 | > 100 | > 100 | > 100 | 85.4 | > 100
Cc1ccc(-n2cc(-c3ccc(Cl)cc3)c3c(NNC(=S)NCc4ccccc4)ncnc32)cc1 | > 100 | 41.1 | 59.5 | 66 | > 100 | 29.1 | 48.6 | > 100 | > 100 | 22.8
CC(C)(C)C(=O)C(C#N)C(=O)C(C)(C)C | > 100 | > 100 | > 100 | > 100 | > 100 | > 100 | > 100 | > 100 | > 100 | > 100
CN(C)CCCNc1ccc2nnn3c4ccc([N+](=O)[O-])cc4c(=O)c1c23 | 5.63 | 3.06 | 2.95 | 7.45 | 12.1 | 12.9 | 9.59 | 17.2 | 14.2 | 2.22
CCOc1c(OC)cc(CNNc2nccs2)cc1OC | > 100 | > 100 | > 100 | > 100 | > 100 | > 100 | > 100 | > 100 | > 100 | > 100
COc1cccc(C(=O)C(O)c2cccc(OC)c2OC)c1OC (stereo not given) | > 100 | > 100 | > 100 | > 100 | > 100 | > 100 | > 100 | > 100 | > 100 | > 100
